Test: Inhibition of influenza A virus (A/WSN/1933(H1N1)) neuraminidase using MUNANA as fluorogenic substrate preincubated for 10 mins followed by substrate addition and measured after 15 mins by fluorometric assay

**Q.** With `CCC(CC)O[C@@H]1C=C([B-](F)(F)F)C[C@H](NC(=N)N)[C@H]1NC(C)=O` as the compound, how does the IC50 read?
**A.** 0.02 µM

**Q.** Which IC50 does the source give for `CCCCOS(=O)(=O)C1=C[C@@H](OC(CC)CC)[C@H](NC(C)=O)[C@@H](NC(=N)N)C1` here?
**A.** 0.0033 µM

**Q.** Which IC50 does the source give for `CCC(CC)O[C@@H]1C=C(S(=O)(=O)CCc2ccncc2)C[C@H](NC(=N)N)[C@H]1NC(C)=O` here?
**A.** 0.0098 µM

**Q.** For `CCC(CC)O[C@@H]1C=C([B-](F)(F)F)C[C@H](N)[C@H]1NC(C)=O`, which IC50 is on record?
**A.** 3.4 µM

**Q.** Which IC50 does the source give for `CCCCOS(=O)(=O)C1=C[C@@H](OC(CC)CC)[C@H](NC(C)=O)[C@@H](N)C1` here?
**A.** 0.027 µM

**Q.** Which IC50 does the source give for `CCC(CC)O[C@@H]1C=C(S(=O)(=O)O)C[C@H](NC(=N)N)[C@H]1NC(C)=O` here?
**A.** 0.0013 µM

**Q.** With `CCC(CC)O[C@@H]1C=C(S(=O)(=O)O)C[C@H](N)[C@H]1NC(C)=O` as the compound, how does the IC50 read?
**A.** 0.0018 µM

**Q.** For `CCC(CC)O[C@@H]1C=C(S(C)(=O)=O)C[C@H](N)[C@H]1NC(C)=O`, which IC50 is on record?
**A.** 0.18 µM

**Q.** With `CCC(CC)O[C@@H]1C=C(B(O)O)C[C@H](NC(=N)N)[C@H]1NC(C)=O` as the compound, how does the IC50 read?
**A.** 0.028 µM

**Q.** With `CCC(CC)O[C@@H]1C=C(S(=O)(=O)CCc2ccncc2)C[C@H](N)[C@H]1NC(C)=O` as the compound, how does the IC50 read?
**A.** 0.33 µM

— BindingDB's records for doi:10.1016/j.ejmech.2018.12.027 (National Taiwan University, 2019)
